Measured values: PMC12733451, “A Novel RANKL/RANK Inhibitor IMB-R38 Inhibits Osteoporosis Through Regulating Bone Metabolism” (International Journal of Molecular Sciences, 2025)
pKd: −log10 of the molar value.

Biological target: T1, RANK (Mus musculus, UniProt O35305)
T1 construct: gene Tnfrsf11a; extracellular segment of RANK (amino acid 26–210), His-RANK fusion expressed in E. coli
T1 sequence (O35305 26-210): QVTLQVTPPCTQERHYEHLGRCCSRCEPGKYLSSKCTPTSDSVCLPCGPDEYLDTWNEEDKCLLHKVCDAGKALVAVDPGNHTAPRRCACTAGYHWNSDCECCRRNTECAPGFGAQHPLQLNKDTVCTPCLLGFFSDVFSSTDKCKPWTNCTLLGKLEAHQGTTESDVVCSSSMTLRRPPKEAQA
Test: SPR on immobilized RANK; supported by CETSA in RAW264.[…] cells
Format: binding

O=C(Nc1ccc(N2CCCCC2)cc1)c1ccccc1O [IMB-R38, 2-hydroxy-N-(4-(piperidin-1-yl)phenyl)benzamide]
pKd: 3.02
